Measured values as given in PubChem BioAssay (NCI).
Values joined by “and” are separate entries in the source; they are usually repeats but may differ in a detail not shown here. Equal entries are not always repeated.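 Grown in 96-well plates, cells were treated for 48 hours with each compound at five concentrations. Insufficient inhibition: endpoint recorded as highest concentration tested. GI50 = concentration required for 50% inhibition of growth. TGI is the concentration that stops growth completely.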

Experiments:
Assay in all cases: NCI anticancer screen, dose series, 48 h; in the data active = GI50 below about 0.43 µM; inactive = the rest
RXF 393 renal = system: RXF 393 renal
LOX IMVI melanoma = system: LOX IMVI melanoma
SF-539 CNS = system: SF-539 CNS
CAKI-1 renal = system: CAKI-1 renal
TK-10 renal = system: TK-10 renal
CCRF-CEM leukemia = system: CCRF-CEM leukemia
COLO 205 colon = system: COLO 205 colon
HCT-116 colon = system: HCT-116 colon
UACC-62 melanoma = system: UACC-62 melanoma
A498 renal = system: A498 renal

COc1cc(/C=C2\Cc3ccccc3C2=O)cc(OC)c1OC
> 100 µM: TGI (RXF 393 renal) | TGI (LOX IMVI melanoma) | TGI (SF-539 CNS) | TGI (CAKI-1 renal) | TGI (TK-10 renal) | TGI (CCRF-CEM leukemia) | TGI (COLO 205 colon) | TGI (HCT-116 colon) | TGI (UACC-62 melanoma)

CN(C)C1C(=O)C(C(N)=O)=C(O)C2(O)C(=O)C3=C(O)c4c(O)cccc4C(C)(O)C3CC12 (stereo not drawn)
72.2 µM and > 100 µM: TGI (COLO 205 colon)
57.1 µM and > 100 µM: TGI (CCRF-CEM leukemia)
inactive: GI50 (CCRF-CEM leukemia) 22.8 µM and 67.5 µM | GI50 (COLO 205 colon) 25.7 µM and > 100 µM | GI50 (HCT-116 colon) 23.7 µM and > 100 µM | GI50 (UACC-62 melanoma) 31.7 µM and 90.9 µM
87.5 µM and > 100 µM: TGI (RXF 393 renal)
39.2 µM and > 100 µM: TGI (HCT-116 colon)
95.5 µM and > 100 µM: TGI (A498 renal)
76.5 µM and > 100 µM: TGI (LOX IMVI melanoma)
> 100 µM: TGI (CAKI-1 renal) | TGI (TK-10 renal) | TGI (UACC-62 melanoma)

CCC(C)(C)NS(=O)(=O)c1ccccc1
> 100 µM: TGI (A498 renal) | TGI (RXF 393 renal) | TGI (SF-539 CNS) | TGI (CAKI-1 renal) | TGI (TK-10 renal) | TGI (CCRF-CEM leukemia) | TGI (HCT-116 colon) | TGI (UACC-62 melanoma)

COc1cc2c(cc1OC)-c1ncc3cc(OC)c(OC)cc3c1C2
inactive: GI50 (RXF 393 renal) > 50 µM | GI50 (LOX IMVI melanoma) > 50 µM | GI50 (SF-539 CNS) > 50 µM | GI50 (CAKI-1 renal) > 50 µM | GI50 (TK-10 renal) > 50 µM | GI50 (CCRF-CEM leukemia) 25.9 µM | GI50 (COLO 205 colon) > 50 µM | GI50 (HCT-116 colon) > 50 µM | GI50 (UACC-62 melanoma) > 50 µM
> 50 µM: TGI (RXF 393 renal) | TGI (LOX IMVI melanoma) | TGI (SF-539 CNS) | TGI (CAKI-1 renal) | TGI (TK-10 renal) | TGI (CCRF-CEM leukemia) | TGI (COLO 205 colon) | TGI (HCT-116 colon) | TGI (UACC-62 melanoma)

CCOC(=O)C(=O)C(/C(=N/N(C)C)C(=O)Nc1ccc(C)cc1C)c1nc2ccccc2[nH]c1=O (stereo not drawn)
> 100 µM: TGI (A498 renal) | TGI (RXF 393 renal) | TGI (LOX IMVI melanoma) | TGI (SF-539 CNS) | TGI (CAKI-1 renal) | TGI (TK-10 renal) | TGI (CCRF-CEM leukemia) | TGI (HCT-116 colon) | TGI (UACC-62 melanoma)

N.N.NCCCCCN.O=C([O-])CC(=O)[O-].O=C([O-])CC(=O)[O-].[Pt+4].[Pt+4]
inactive: GI50 (A498 renal) > 100 µM | GI50 (RXF 393 renal) > 100 µM | GI50 (LOX IMVI melanoma) > 100 µM | GI50 (SF-539 CNS) 77.4 µM | GI50 (TK-10 renal) > 100 µM | GI50 (CCRF-CEM leukemia) 34 µM | GI50 (COLO 205 colon) > 100 µM | GI50 (HCT-116 colon) > 100 µM | GI50 (UACC-62 melanoma) 18.7 µM
> 100 µM: TGI (A498 renal) | TGI (RXF 393 renal) | TGI (LOX IMVI melanoma) | TGI (SF-539 CNS) | TGI (TK-10 renal) | TGI (CCRF-CEM leukemia) | TGI (COLO 205 colon) | TGI (HCT-116 colon) | TGI (UACC-62 melanoma)

COc1c(Cl)[c]([Hg][O]C(C)=O)c(NCC(C)=O)c(OC)[c]1[Hg][O]C(C)=O
35.1 µM: TGI (CAKI-1 renal)
54.5 µM: TGI (COLO 205 colon)
13.3 µM: TGI (SF-539 CNS)
> 100 µM: TGI (LOX IMVI melanoma)
inactive: GI50 (A498 renal) 26.7 µM | GI50 (RXF 393 renal) 14.4 µM | GI50 (LOX IMVI melanoma) 33.4 µM | GI50 (SF-539 CNS) 2.92 µM | GI50 (CAKI-1 renal) 20.2 µM | GI50 (TK-10 renal) 14.3 µM | GI50 (CCRF-CEM leukemia) 10.3 µM | GI50 (COLO 205 colon) 22 µM
27.7 µM: TGI (TK-10 renal)
34.4 µM: TGI (CCRF-CEM leukemia)
30.4 µM: TGI (RXF 393 renal)
71 µM: TGI (A498 renal)

OCCCCCNc1ccnc2cc(Cl)ccc12
> 100 µM: TGI (A498 renal) | TGI (RXF 393 renal) | TGI (SF-539 CNS) | TGI (CAKI-1 renal) | TGI (CCRF-CEM leukemia) | TGI (COLO 205 colon) | TGI (HCT-116 colon) | TGI (UACC-62 melanoma)

Cc1nc2ccccc2c(/C=C/c2ccccc2)c1C(=O)/C=C/c1ccccc1
> 100 µM: TGI (CCRF-CEM leukemia)
4.44 µM: TGI (COLO 205 colon)
3.22 µM: TGI (RXF 393 renal)
6.81 µM: TGI (TK-10 renal)
inactive: GI50 (A498 renal) 1.83 µM | GI50 (RXF 393 renal) 1.78 µM | GI50 (LOX IMVI melanoma) 1.77 µM | GI50 (SF-539 CNS) 1.76 µM | GI50 (TK-10 renal) 2.58 µM | GI50 (CCRF-CEM leukemia) 2.51 µM | GI50 (COLO 205 colon) 1.82 µM | GI50 (HCT-116 colon) 1.11 µM | GI50 (UACC-62 melanoma) 1.77 µM
3.46 µM: TGI (A498 renal)
2.56 µM: TGI (HCT-116 colon)
3.23 µM: TGI (UACC-62 melanoma)
3.19 µM: TGI (LOX IMVI melanoma) | TGI (SF-539 CNS)

CCOC(=O)NC(=O)c1cn(C2OC(COC(=O)CCCCCCCCC(=O)OCC3OC(n4cc(C(=O)NC(=O)OCC)c(=O)[nH]c4=O)C4OC(C)(C)OC34)C3OC(C)(C)OC32)c(=O)[nH]c1=O (stereo not drawn)
> 100 µM: TGI (A498 renal) | TGI (RXF 393 renal) | TGI (LOX IMVI melanoma) | TGI (SF-539 CNS) | TGI (CAKI-1 renal) | TGI (TK-10 renal) | TGI (CCRF-CEM leukemia) | TGI (HCT-116 colon) | TGI (UACC-62 melanoma)

COc1cc(=O)oc(/C=C/C=C/C=C/C(C)=C\C2(C)OC(C)C(C)(O)C2O)c1C (stereo not drawn)
> 100 µM: TGI (A498 renal) | TGI (LOX IMVI melanoma) | TGI (SF-539 CNS) | TGI (CAKI-1 renal) | TGI (TK-10 renal) | TGI (CCRF-CEM leukemia) | TGI (COLO 205 colon) | TGI (HCT-116 colon) | TGI (UACC-62 melanoma)

O=C(Nc1ccc(N2CCNCC2)cn1)c1[nH]ncc1Nc1ncnc2sccc12
inactive: GI50 (A498 renal) 13.4 µM | GI50 (RXF 393 renal) 3.32 µM | GI50 (SF-539 CNS) 1.69 µM | GI50 (CAKI-1 renal) 3.89 µM | GI50 (TK-10 renal) 3.62 µM | GI50 (CCRF-CEM leukemia) 1.25 µM | GI50 (COLO 205 colon) 1.72 µM | GI50 (HCT-116 colon) 1.15 µM | GI50 (UACC-62 melanoma) 2.6 µM
> 100 µM: TGI (CAKI-1 renal)
31.5 µM: TGI (A498 renal)
14.8 µM: TGI (TK-10 renal)
3.88 µM: TGI (COLO 205 colon)
6.97 µM: TGI (CCRF-CEM leukemia)
3.09 µM: TGI (HCT-116 colon)
3.39 µM: TGI (SF-539 CNS)
18.8 µM: TGI (RXF 393 renal)
7.33 µM: TGI (UACC-62 melanoma)

COc1cc2c(cc1OC)-c1ncc3cc(OC)c(OC)c(OC)c3c1C2
86.1 µM: TGI (CAKI-1 renal)
34 µM: TGI (SF-539 CNS)
85.8 µM: TGI (RXF 393 renal)
35.8 µM: TGI (LOX IMVI melanoma)
26.8 µM: TGI (UACC-62 melanoma)
> 100 µM: TGI (TK-10 renal) | TGI (COLO 205 colon) | TGI (HCT-116 colon)
inactive: GI50 (RXF 393 renal) 23.2 µM | GI50 (LOX IMVI melanoma) 16.8 µM | GI50 (SF-539 CNS) 14 µM | GI50 (CAKI-1 renal) 20.5 µM | GI50 (TK-10 renal) 27.7 µM | GI50 (COLO 205 colon) 27.7 µM | GI50 (HCT-116 colon) 31.8 µM | GI50 (UACC-62 melanoma) 7.42 µM

CCN(CC)CCOc1ccc(Cc2ccccc2)cc1
33.3 µM: TGI (LOX IMVI melanoma)
87 µM: TGI (A498 renal)
31.5 µM: TGI (COLO 205 colon)
> 100 µM: TGI (SF-539 CNS) | TGI (CAKI-1 renal) | TGI (HCT-116 colon) | TGI (UACC-62 melanoma)
inactive: GI50 (A498 renal) 19.3 µM | GI50 (RXF 393 renal) 24.8 µM | GI50 (LOX IMVI melanoma) 15.2 µM | GI50 (SF-539 CNS) 32.1 µM | GI50 (CAKI-1 renal) 29.5 µM | GI50 (TK-10 renal) 23.3 µM | GI50 (COLO 205 colon) 16.1 µM | GI50 (HCT-116 colon) 34.8 µM | GI50 (UACC-62 melanoma) 30.8 µM
92.9 µM: TGI (TK-10 renal)
88.8 µM: TGI (RXF 393 renal)

CC(CCC(=O)O)c1ccc(Br)cc1 (stereo not drawn)
> 100 µM: TGI (RXF 393 renal) | TGI (LOX IMVI melanoma) | TGI (CAKI-1 renal) | TGI (TK-10 renal) | TGI (CCRF-CEM leukemia) | TGI (COLO 205 colon) | TGI (HCT-116 colon) | TGI (UACC-62 melanoma)

CC(C)c1cc(C(=O)[O-])c(O)c(C(C)C)c1.CC(C)c1cc(C(=O)[O-])c(O)c(C(C)C)c1.CC(C)c1cc(C(=O)[O-])c(O)c(C(C)C)c1.CC(C)c1cc(C(=O)[O-])c(O)c(C(C)C)c1.CC(C)c1cc(C(=O)[O-])c(O)c(C(C)C)c1.CC(C)c1cc(C(=O)[O-])c(O)c(C(C)C)c1.[Cu+2].[Mn+2].[Mn+2]
82.2 µM: TGI (A498 renal)
39.8 µM: TGI (SF-539 CNS)
inactive: GI50 (A498 renal) 34.1 µM | GI50 (LOX IMVI melanoma) 17 µM | GI50 (SF-539 CNS) 22.1 µM | GI50 (CAKI-1 renal) 30.9 µM | GI50 (TK-10 renal) 39.5 µM | GI50 (CCRF-CEM leukemia) 15.8 µM | GI50 (COLO 205 colon) 10.9 µM | GI50 (HCT-116 colon) 21.2 µM | GI50 (UACC-62 melanoma) 15.3 µM
53.3 µM: TGI (CAKI-1 renal)
37.8 µM: TGI (HCT-116 colon)
25.6 µM: TGI (COLO 205 colon)
42.8 µM: TGI (CCRF-CEM leukemia)
91.7 µM: TGI (TK-10 renal)
36.3 µM: TGI (LOX IMVI melanoma)
34.4 µM: TGI (UACC-62 melanoma)
